Measured values reported in US7671181B2, “Polynucleotides encoding coccidian parasite casein kinase I, a chemotherapeutic target for antiprotozoal agents” (Merck Sharp & Dohme Corp., priority 2004, dated 2010).
Where two headings read alike, the source gives them in different places.

Experiments:
T. gondii tachyzoites = assay: [3H]-uracil uptake assay of parasite growth inhibition in infected HFF cell monolayers; format: cell-based, Toxoplasma gondii; conditions: for IC50: read-out: IC50 against T. gondii in the uracil uptake assay; for activity against cultured T. gondii parasites: uracil uptake / whole cell assay
From the text: (§1) Host cells and parasite cultures—RH strain or RH ΔHXGPRT strain tachyzoites of T. gondii were maintained by serial passage in confluent monolayers of human foreskin fibroblasts (“HFF”) as described (Roos, D. S. et al., 1994, Methods Cell Biol. 45:27-63). A modified [^3H]-uracil uptake assay (Pfefferkorn, E. R. and Pfefferkorn, L. C., 1977, J. Protozool. 24:449-453) adapted for use in 96-well scintillation plates (Cytostar-T, Amersham; Piscataway, N.J.) was used to measure parasite growth inhibition. Each well, previously seeded with HFF cells, was inoculated with T. gondii tachyzoites (2×10^4) in 200 μl of growth media containing 2 μCi [5,6]-^3H-uracil (Perkin-Elmer NEN; Boston, Mass.) and serially diluted compound. Following incubation at 37° C. for 36-48 hours, tritium-incorporation into host cell monolayers was directly counted in a microplate scintillation counter (MicroBeta, PerkinElmer-Wallac).

T. gondii = assay: Parasite growth inhibition, modified [3H]-uracil uptake assay in infected HFF cell monolayers; format: cell-based, Toxoplasma gondii; conditions: for activity against T. gondii in the uracil uptake (whole cell) assay: cultured parasites, in words
From the text: as §1
The only other CDK inhibitor with sub-μM activity against T. gondii was indirubin-3′-monoxime, which gave an IC50 value of 500 nM.

TgCKIα [1] = biological target: T1, TgCKIα (Toxoplasma gondii, UniProt Q6QNM1); assay: Casein kinase assay, TgCKIα (recombinant FLAGTgCKIα or partially purified native); format: biochemical; parameters: other: recombinant or native forms of TgCKIα
T1 sequence (Q6QNM1 whole entry, looked up): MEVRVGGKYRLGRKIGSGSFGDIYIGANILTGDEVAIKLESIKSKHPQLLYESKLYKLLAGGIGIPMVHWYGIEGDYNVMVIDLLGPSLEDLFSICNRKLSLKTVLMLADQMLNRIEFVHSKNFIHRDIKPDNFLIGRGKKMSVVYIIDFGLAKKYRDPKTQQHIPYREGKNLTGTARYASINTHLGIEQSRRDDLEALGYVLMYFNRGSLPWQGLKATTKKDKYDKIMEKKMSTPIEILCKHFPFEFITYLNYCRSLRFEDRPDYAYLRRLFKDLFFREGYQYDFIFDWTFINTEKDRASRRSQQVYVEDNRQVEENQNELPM
Method: (§2) Protein kinase assays—Casein kinase activity was assayed essentially as described (Donald, R. G. K. et al., 2002, supra) using 96-well phosphocellulose plates (MAPH-NOB, Millipore; Billerica, Mass.) to capture ^33P-phosphorylated peptide or casein substrates. Kinase reactions were carried out in 40 μl volumes containing 25 mM Hepes, pH 7.4, 10 mM MgCl2, 20 mM β-glycerophosphate, 1 mM DTT, 250 μM substrate, 1 mg/mL BSA, 2 μM ATP, and 0.01 μM [γ-^33P]ATP (Perkin-Elmer, 3000 Ci/mmol). […] Casein (5% solution), partially dephosphorylated α-casein and β-casein were obtained from Sigma.
(§3) A variety of commercially available peptide substrates were evaluated. From Calbiochem (San Diego, Calif.): CKI substrate (RRKDLHDDEEDEAMSITA; SEQ ID NO:13); CKII substrate (RRADDSDDDDD; SEQ ID NO:14); Syntide-2 substrate (PLARTLSVAGLPGKK; SEQ ID NO:15); CaM kinase II substrate (281-291) (MHKNETVECLK; SEQ ID NO:16). From Promega: CKI substrate (DDDEESITRR; SEQ ID NO:17) and kemptide (LRRASLG; SEQ ID NO:18). From New England Biolabs (Beverly, Mass.): CKI phosphopeptide substrate (KRRRALS(p)VASLPGL; SEQ ID NO:19), and CKII substrate (RRREEETEEE; SEQ ID NO:20). PKG assays were performed with kemptide as substrate and 10 μM cGMP. CDPK was assayed with Syntide-2 substrate and in the presence of 100 μM CaCl2.
Purification of recombinant CKI enzymes—E. coli strain BL21 Origami™ (Novagen) was transformed with FLAGTgCKIα and FLAGTgCKIβ expression vectors, and colonies were expanded into 250 mL LB cultures grown at 37° C. […] Protein was measured with a micro-BCA reagent (Pierce) following a TCA-sodium deoxycholate step to remove residual FLAG peptide (Brown et al., 1989, Anal. Biochem. 180:136-139). […]
(§4) Preparations of FLAGTgCKIα and FLAGTgCKIβ were purified further on a SMART system FPLC 0.1 mL MonoQ anion exchange column (Pharmacia; New York, N.Y.) equilibrated in buffer A (50 mM Hepes, pH 7.4, 10% glycerol, 1 mM DTT) at room temperature. […] A linear salt gradient was applied (0-500 mM in 3 mL at 100 μl/min) and 100 μl fractions were collected and analyzed by SDS-PAGE and for CKI activity. […]

EtCKIα = EtCKIα (Eimeria tenella, UniProt Q6QNL9); assay: Casein kinase assay, partially purified native EtCKIα; format: biochemical; conditions: native enzyme
Chain of EtCKIα (Q6QNL9 whole entry): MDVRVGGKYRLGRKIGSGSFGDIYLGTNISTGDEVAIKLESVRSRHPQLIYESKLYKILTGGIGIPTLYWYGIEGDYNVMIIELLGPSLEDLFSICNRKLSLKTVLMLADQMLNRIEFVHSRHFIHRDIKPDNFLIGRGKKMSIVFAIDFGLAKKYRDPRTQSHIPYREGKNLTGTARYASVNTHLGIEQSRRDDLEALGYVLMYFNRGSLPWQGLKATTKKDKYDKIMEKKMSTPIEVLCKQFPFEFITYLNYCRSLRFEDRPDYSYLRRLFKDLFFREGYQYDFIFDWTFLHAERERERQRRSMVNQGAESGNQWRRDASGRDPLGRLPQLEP
Method: (§5) Protein kinase assays—Casein kinase activity was assayed essentially as described (Donald, R. G. K. et al., 2002, supra) using 96-well phosphocellulose plates (MAPH-NOB, Millipore; Billerica, Mass.) to capture ^33P-phosphorylated peptide or casein substrates. Kinase reactions were carried out in 40 μl volumes containing 25 mM Hepes, pH 7.4, 10 mM MgCl2, 20 mM β-glycerophosphate, 1 mM DTT, 250 μM substrate, 1 mg/mL BSA, 2 μM ATP, and 0.01 μM [γ-^33P]ATP (Perkin-Elmer, 3000 Ci/mmol). The reactions were initiated by the addition of enzyme and incubated at room temperature for 60 min. Casein (5% solution), partially dephosphorylated α-casein and β-casein were obtained from Sigma.
as §3
Partial purification of native EtCKIα—The inability to stably express recombinant EtCKIα in T. gondii provided impetus to purify native enzyme from E. tenella parasites (slide 5). A lysate was prepared from 2×10^10 unsporulated oocysts using previously published procedures (Gurnett, A. M. et al., 2002, supra). The first two steps of the purification scheme used were essentially scaled-up from the method described for the purification of native TgCKIα. The lysate was subjected to preparative HiLoad Q anion-exchange chromatography and fractions eluted with a NaCl gradient (0-1 M NaCl). […]

TgCKIβ = TgCKIβ (Toxoplasma gondii, UniProt Q6QNM0); assay: Casein kinase assay, recombinant FLAGTgCKIβ; format: biochemical; conditions: substrate titration, 2 μM ATP; for Km: read-out: Km(app), FLAGTgCKIβ
Chain of TgCKIβ (Q6QNM0 entry or part of it): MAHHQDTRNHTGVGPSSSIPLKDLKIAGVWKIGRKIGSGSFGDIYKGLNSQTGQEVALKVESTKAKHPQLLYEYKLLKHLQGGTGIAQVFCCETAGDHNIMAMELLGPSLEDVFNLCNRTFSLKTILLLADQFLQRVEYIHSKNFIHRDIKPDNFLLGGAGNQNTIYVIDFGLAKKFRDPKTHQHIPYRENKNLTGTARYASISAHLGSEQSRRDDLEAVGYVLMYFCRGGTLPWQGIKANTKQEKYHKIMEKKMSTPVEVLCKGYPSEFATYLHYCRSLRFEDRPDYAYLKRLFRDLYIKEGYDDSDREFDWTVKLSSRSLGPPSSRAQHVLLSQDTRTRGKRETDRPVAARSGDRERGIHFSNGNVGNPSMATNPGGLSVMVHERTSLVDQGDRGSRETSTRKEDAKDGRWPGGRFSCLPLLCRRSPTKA
Method: as §2, §3
(§6) Purification of recombinant CKI enzymes—E. coli strain BL21 Origami™ (Novagen) was transformed with FLAGTgCKIα and FLAGTgCKIβ expression vectors, and colonies were expanded into 250 mL LB cultures grown at 37° C. Expression was induced with 1 mM IPTG once cultures had reached an OD600nm of 0.3-0.5, and the transformed bacteria were harvested 4-6 hours later. Cell pellets were resuspended in 15 mL of lysis buffer containing protease inhibitors and lysates prepared as described by the supplier (Bugbuster™ reagents, Novagen). The concentration of NaCl in the lysate was adjusted to 0.5 M, and 0.5 mL of FLAG-agarose beads were added (Sigma). The mixture was allowed to rock in a Nutator mixer (Becton-Dickinson; San Jose, Calif.) for 2 hours at 4° C. The slurry was then poured into an empty column and the matrix washed with 50 mL of wash buffer (50 mM Tris-HCl, pH 7.4, 0.5M NaCl, 10% glycerol, 1 mM DTT, 1 mM EDTA). Enzyme was eluted with 5 mL of 0.4 mg/mL FLAG peptide (Sigma) in NaCl-free wash buffer and concentrated with a centrifuge filtration unit (Amicon Ultra®, 10 kDa cut-off, Millipore). Protein was measured with a micro-BCA reagent (Pierce) following a TCA-sodium deoxycholate step to remove residual FLAG peptide (Brown et al., 1989, Anal. Biochem. 180:136-139). Using this procedure, and SDS-PAGE analysis, the yield of FLAGTgCKIβ was estimated as ˜200 μg of enzyme with >90% purity. Purification of FLAGTgCKIα was much less efficient with only about 1 μg of ˜10% pure enzyme obtained per 250 mL bacterial culture.
Preparations of FLAGTgCKIα and FLAGTgCKIβ were purified further on a SMART system FPLC 0.1 mL MonoQ anion exchange column (Pharmacia; New York, N.Y.) equilibrated in buffer A (50 mM Hepes, pH 7.4, 10% glycerol, 1 mM DTT) at room temperature. Samples of FLAG-affinity purified enzyme (10-100 μg) were syringe-passed through a 0.22 μm (pore-size) filter before loading on the column. A linear salt gradient was applied (0-500 mM in 3 mL at 100 μl/min) and 100 μl fractions were collected and analyzed by SDS-PAGE and for CKI activity. Fractions with peak activity were retained for further analysis. The degree of purity of the partially purified FLAGTgCKIα was estimated by densitometry of silver stained SDS-PAGE gels. A recombinant rat CKIδ enzyme used for control purposes was obtained from New England Biolabs.

TgCDPK1 = biological target: T2, TgCDPK1 (Toxoplasma gondii, UniProt Q9BJF5); assay: CDPK assay with Syntide-2, T. gondii CDPK1; format: biochemical; conditions: read-out: IC50 against the CDPK1 enzyme
T2 construct: The TgCDPK1 open reading frame was amplified by PCR from a Toxoplasma cDNA library; made in house
T2 sequence (Q9BJF5 entry or part of it): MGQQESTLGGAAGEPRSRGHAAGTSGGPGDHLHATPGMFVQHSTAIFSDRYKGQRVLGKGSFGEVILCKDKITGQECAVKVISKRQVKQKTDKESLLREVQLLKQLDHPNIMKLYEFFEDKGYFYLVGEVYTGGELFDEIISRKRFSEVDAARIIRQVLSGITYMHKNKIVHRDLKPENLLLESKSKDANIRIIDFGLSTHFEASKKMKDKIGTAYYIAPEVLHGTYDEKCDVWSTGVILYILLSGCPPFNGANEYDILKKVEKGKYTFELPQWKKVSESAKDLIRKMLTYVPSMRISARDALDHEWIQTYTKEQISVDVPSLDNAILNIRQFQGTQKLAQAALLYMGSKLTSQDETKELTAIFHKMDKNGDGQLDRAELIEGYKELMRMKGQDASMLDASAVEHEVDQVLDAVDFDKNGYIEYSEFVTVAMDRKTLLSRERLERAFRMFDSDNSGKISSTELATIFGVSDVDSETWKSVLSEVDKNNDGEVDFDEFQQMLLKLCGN
Method: as §5, §3
Purification of recombinant TgCDPK1 and TgPKG—The TgCDPK1 open reading frame was amplified by PCR from a Toxoplasma cDNA library, using primers based on the published sequence (Kieschnick et al., 2001, supra): sense primer, […] (SEQ ID NO:44); and, antisense primer, […] (SEQ ID NO:45). A C-terminal FLAG epitope tag was appended to the TgCDPK1 open reading frame by an additional round of PCR amplification (KOD polymerase) and the resulting DNA fragment was sub-cloned into a tubulin promoter expression vector (Donald and Liberator, 2002, supra). […]

TgCKIα [2] = biological target: T1, TgCKIα; assay: Casein kinase assay, TgCKIα (recombinant FLAGTgCKIα or partially purified native); format: biochemical; parameters: Km(app), native TgCKIα; other: substrate titration, 2 μM ATP; IC50, nativeTgCKIα; other: partially purified native enzyme from Toxoplasma tachyzoites; sensitivity of native TgCKIα phosphopeptide kinase activity (HiTrapQ fractions 5-9); other: 0.2 μM hymenialdisine or 1; conditions: substrate titration, 2 μM ATP; read-out: Km(app), native TgCKIα
Method: as §2, §3
as §6, with “Enzyme was eluted with 5 mL of 0.4 mg/mL FLAG peptide (Sigma) in NaCl-free wash buffer and concentrated with a centrifuge filtration unit (Amicon Ultra®, 10 kDa cut-off, Millipore).” left out, “Using this procedure, and SDS-PAGE analysis, the yield of FLAGTgCKIβ was estimated as ˜200 μg of enzyme with >90% purity. Purification of FLAGTgCKIα was much less efficient with only about 1 μg of ˜10% pure enzyme obtained per 250 mL bacterial culture.” left out
as §4

TgCKIα [3] = biological target: T1, TgCKIα; assay: as above; format: biochemical; parameters: Vmax(app), FLAGTgCKIα; other: substrate titration, 2 μM ATP; Km(app), FLAGTgCKIα; conditions: substrate titration, 2 μM ATP; for Km: read-out: Km(app), FLAGTgCKIα
Method: as §2, §3
as §6, with “Enzyme was eluted with 5 mL of 0.4 mg/mL FLAG peptide (Sigma) in NaCl-free wash buffer and concentrated with a centrifuge filtration unit (Amicon Ultra®, 10 kDa cut-off, Millipore).” left out, “Using this procedure, and SDS-PAGE analysis, the yield of FLAGTgCKIβ was estimated as ˜200 μg of enzyme with >90% purity. Purification of FLAGTgCKIα was much less efficient with only about 1 μg of ˜10% pure enzyme obtained per 250 mL bacterial culture.” left out
as §4

Molecule: CN1CCC(c2cc(-c3ccncc3)c(-c3ccc(F)cc3)[nH]2)CC1 [Compound 1]
- IC50 (T. gondii tachyzoites; infected HFF cell monolayers, 36-48 hours): 200 nM
- IC50 (T. gondii; Toxoplasma gondii, HFF): 200 nM

Molecule: CC(C)[C@H](CO)Nc1nc(Nc2cc(N)cc(Cl)c2)c2ncn(C(C)C)c2n1 [aminopurvalanol]
- IC50 (T. gondii tachyzoites; Toxoplasma gondii, HFF): 375 nM
- IC50 (TgCKIα [1]): 40 to 60 nM
- activity against / sensitivity of EtCKIα (EtCKIα): good activity

Molecule: Cn1cnc2c(NCc3ccccc3)nc(NCCO)nc21 [olomoucine]
- activity against cultured T. gondii parasites (T. gondii tachyzoites): no activity

Molecule: CC(C)[C@H](CO)Nc1nc(Nc2cccc(Cl)c2)c2ncn(C(C)C)c2n1 [purvalanol A]
- activity against cultured T. gondii parasites (T. gondii tachyzoites): mediocre activity
- activity against T. gondii in the uracil uptake (whole cell) assay (T. gondii): only mediocre activity

Molecule: CC[C@H](CO)Nc1nc(NCc2ccccc2)c2ncn(C(C)C)c2n1 [roscovitine]
- activity against cultured T. gondii parasites (T. gondii tachyzoites): mediocre activity
- activity against T. gondii in the uracil uptake (whole cell) assay (T. gondii): only mediocre activity

Molecule: RRKDLHDDEEDEAMSITA [CKI peptide]
- Vmax(app), FLAGTgCKIβ (TgCKIβ): 8 nmol/min/mg
- Km (TgCKIβ): 15 µM

Molecule: indirubin-3′-monoxime
- IC50 (TgCKIα [1]; recombinant or native forms of TgCKIα, read-out: IC50 against TgCKIα): 172 nM
- IC50 (TgCDPK1): 175 nM

B1: α-casein: partially dephosphorylated α-casein from Sigma, kinase substrate (protein)
chain: RPKHPIKHQGLPQEVLNENLLRFFVAPFPEVFGKEKVNELSKDIGSESTEDQAMEDIKQMEAESISSSEEIVPNSVEQKHIQKEDVPSERYLGYLEQLLRLKKYKVPQLEIVPNSAEERLHSMKEGIHAQQKEPMIGVNQELAYFYPELFRQFYQLDAYPSGAWYYVPLGTQYTDAPSFSDIPNPIGSENSEKTTMPLW
- Vmax(app), FLAGTgCKIβ (TgCKIβ): 12 nmol/min/mg
- Km (TgCKIβ): 5 µM
- Km (TgCKIα [2]): 3 µM
- Vmax(app), FLAGTgCKIα (TgCKIα [3]): 8 nmol/min/mg
- Km (TgCKIα [3]): 4 µM

B2: β-casein: β-casein from Sigma, kinase substrate (protein)
chain: RELEELNVPGEIVESLSSSEESITRINKKIEKFQSEEQQQTEDELQDKIHPFAQTQSLVYPFPGPIPNSLPQNIPPLTQTPVVVPPFLQPEVMGVSKVKEAMAPKHKEMPFPKYPVEPFTESQSLTLTDVENLHLPLPLLQSWMHQPHQPLPPTVMFPPQSVLSLSQSKVLPVPQKAVPYPQRDMPIQAFLLYQEPVLGPVRGPFPIIV
- Vmax(app), FLAGTgCKIβ (TgCKIβ): 16 nmol/min/mg
- Km (TgCKIβ): 12 µM
- Km (TgCKIα [2]): 13 µM
- Vmax(app), FLAGTgCKIα (TgCKIα [3]): 8 nmol/min/mg
- Km (TgCKIα [3]): 30 µM
